# Data published in patent US12485107B2, “Methods for the prevention or treatment of cytokine storm” (Beth Israel Deaconess Medical Center, Inc., priority 2019, dated 2025).
# “Also recorded” adds a separate entry of the source.
# Columns and labels:
# [1] = test system: debris-stimulated intraperitoneal ovarian tumors (ID8); experiment: Debris-stimulated intraperitoneal ID8 ovarian tumor model, survival; assay type: in vivo, mice
# Protocol: (§1) All animal studies were reviewed and approved by the Animal Care and Use Committee of Beth Israel Deaconess Medical Center, Boston, MA Mice were housed at a maximum of 5 animals per cage in a pathogen-free facility with unlimited access to sterile water and chow. Daily welfare evaluations and animal sacrifices were carried out according to the Committee guidelines. For murine injections, chemotherapy-generated murine (ID8) or human (OVCAR5) ovarian tumor cell debris was combined with ID8 or OVCAR5 living cells at equal volumes in PBS. Six-week-old female C57BL/6 (The Jackson Laboratory, Bar Harbor, ME) or SCID mice (Charles River, Cambridge, MA) were injected subcutaneously or intraperitoneally with 100 μL/mouse of ID8 or OVCAR5 cells, respectively. For orthotopic injections, 6-week-old C57BL/6 female mice were injected with 20 μL/mouse of matrigel (Becton Dickinson and Company, Franklin Lakes, NJ) mixed with paclitaxel-generated ID8 debris and/or ID8 living cells at a 1:1 (matrigel:cells) ratio directly into the right ovarian bursa. Systemic treatment with PTUPB (30 mg/kg/day) or control was administered via mini-osmotic pumps (Alzet Inc., Cupertino, CA) implanted into the peritoneum of the mice 4 weeks post-injection. Treatment ended 28 days after implantation of the pumps. Systemic chemotherapy with carboplatin (10 mg/kg q 3 days) or control that were initiated on the day of tumor cell injection.
# Statistical analyses for in vitro studies were performed using Student's two-tailed unpaired t-test. Data are represented as mean±S.E.M. with p-values less than 0.05 considered statistically significant. For in vivo studies, the Kaplan-Meier product-limit method and log-rank testing were used to evaluate survival differences over time after the day of tumor cell injection between mice co-injected with tumor cell debris and living cells vs. living cells alone. Data are represented as percent survival with p-values less than 0.01 considered statistically significant.
# [2] = test system: human monocyte-derived macrophage; assay type: cell-based; settings: 5 μM, 2 hours
# [3] = test system: RAW264.7 murine macrophages; experiment: Cytokine arrays of RAW264.7 macrophages stimulated with gemcitabine-generated PancOH7 debris; assay type: cell-based; settings: 5 μM, 2 hours pre-treatment
# Protocol: (A) Inflammatory and (B) angiogenic cytokine array of RAW264.7 murine macrophage conditioned media co-cultured with chemotherapy (gemcitabine)-generated murine pancreatic (PancOH7) tumor cell debris and pre-treated with vehicle or PTUPB (5 μM, 2 hours).
# Inflammatory (FIG. 15A) and angiogenic (FIG. 15B) cytokine arrays of conditioned media from RAW264.7 macrophages treated with vehicle or PTUPB (5 uM) for 2 hours stimulated with gemcitabine-generated PancOH7 debris are shown in FIGS. 15A and 15B. “Cytokine storm” released by debris-stimulated macrophages is prevented by the dual COX-2/sEH inhibitor PTUPB.
# [4] = test system: primary peritoneal murine macrophages; assay type: cell-based; settings: RFU, percent increase above vehicle-treated macrophages
# [5] = test system: RAW 264.7 murine macrophages; experiment: Inflammatory cytokine array of RAW264.7 macrophages stimulated with ethanol-generated MS-1 endothelial cell debris; assay type: cell-based; settings: 5 μM (combination 2.5 μM each), 2 hours pre-treatment
# [6] = test system: RAW264.7 murine macrophages; assay type: cell-based; settings: 5 μM, 2 hours pre-treatment
# [7] = test system: RAW264.7 murine macrophages; experiment: Inflammatory cytokine array of RAW264.7 macrophages stimulated with ethanol-generated Hepa 1-6 debris; assay type: cell-based; settings: 5 μM (combination 5 μM each), 2 hours pre-treatment
# Protocol: Inflammatory cytokine array of RAW264.7 murine macrophage conditioned media co-cultured with ethanol-generated murine liver (Hepa 1-6) tumor cell debris and pre-treated for 2 hours with vehicle, PTUPB (5 μM), Ome-21i (5 μM), or Ome-21i+Celecoxib (5 μM each).
# An inflammatory cytokine array of conditioned media from RAW264.7 macrophages treated with vehicle, PTUPB (5 μM), Ome-21i (5 μM), or Ome-21i (5 μM) and Celecoxib (5 μM) for 2 hours stimulated with ethanol-generated Hepa 1-6 debris is shown in FIG. 17. “Cytokine storm” released by debris-stimulated macrophages is prevented by the dual COX-2/sEH inhibitor PTUPB or sEH inhibitor Ome-21i and COX-2 inhibitor celecoxib.
# [8] = kidney injury model; Hye Khan et al. 2016; cited from earlier work
# [9] = test system: intraperitoneal ovarian tumors (ID8); experiment: In vivo cytokines (serum, ascites) in mice bearing intraperitoneal ID8 ovarian tumors
# Protocol: In vivo cytokines (serum or ascites) or cytokines in conditioned medium of macrophages treated with PTUPB and exposed to paclitaxel- or carboplatin-generated debris, were assessed according to the protocols provided by Proteome Profiler Mouse Cytokine Array Kit Panel A, Proteome Profiler Mouse Angiogenesis Array Kit, or Proteome Profiler Human Cytokine Array Kit Panel A (R&D Systems, Inc., Minneapolis, MN). Array control allows for comparison between membranes. For in vivo analysis, n=2 mice/group (serum); n=1 mouse/group (ascites).
# For quantitation of pro-inflammatory cytokines, serum or conditioned medium from macrophages treated with PTUPB and stimulated with paclitaxel-generated ID8 debris or from paclitaxel-generated ID8 debris alone without macrophages was used according to the protocols provided in each ELISA kit (R&D Systems, Minneapolis, MN).
# as §1, with “Treatment ended 28 days after implantation of the pumps. Systemic chemotherapy with carboplatin (10 mg/kg q 3 days) or control that were initiated on the day of tumor cell injection.” left out
# ID8 tumor cells = experiment: MTT proliferation assay; assay type: cell-based, murine; settings: 1-10 μM, 24 hours
# Protocol: Cell Proliferation Kit 1 (MTT) (Roche, Basel, Switzerland) was used according to recommended protocol to quantify proliferation. ID8 cells were plated at 5×10^3 cells/well in 96-well plates with DMEM supplemented with 1% FBS and 1% GPS and incubated overnight. Cells were re-fed with DMEM supplemented with 1% FBS and 1% GPS and vehicle or PTUPB (1, 5, or 10 μM). After a 24 hour incubation at 37° C., 10 μL of MTT reagent was added to each well and incubated for 4 hours at 37° C. Next, 100 μL of solubilizing solution was added to each well and incubated overnight at 37° C. VersaMax microplate reader (Molecular Devices, San Jose, CA) was used to quantify the results of the assay. Absorbance readings were normalized to vehicle. Experiments were performed three times with similar results.
# [10] = test system: debris-stimulated orthotopic ovarian tumor (ID8); experiment: Debris-stimulated orthotopic ID8 ovarian tumor model; assay type: in vivo, mice; settings: PTUPB 30 mg/kg/day
# Protocol: as §1, with “Systemic chemotherapy with carboplatin (10 mg/kg q 3 days) or control that were initiated on the day of tumor cell injection.” left out
compound,measurement,setting,value
"NS(=O)(=O)c1ccc(-n2nc(CCCNC(=O)Nc3ccc(C(F)(F)F)cc3)cc2-c2ccccc2)cc1 [PTUPB, 4-(5-phenyl-3-{3-[3-(4-trifluoromethyl-phenyl)-ureido]propyl}-pyrazol-1-yl) benzenesulfonamide]",sustained survival,"[1]; PTUPB 30 mg/kg/day by mini-osmotic pump from 4 weeks post-injection, paclitaxel- or carboplatin-generated ID8 debris + ID8 living cells i.p.",over 120 days post-injection
same,"survival compared to control (Kaplan-Meier, log-rank), paclitaxel-generated debris i.p. model","[1]; PTUPB 30 mg/kg/day, log-rank test=9.70, p=0.0018",significantly prolonged survival
same,"survival compared to control (Kaplan-Meier, log-rank), carboplatin-generated debris i.p. model","[1]; PTUPB 30 mg/kg/day, log-rank test=9.85, p=0.0017",significantly prolonged survival
same,cytokine storm induced by aflatoxin B1-generated HepG2 debris in human monocyte-derived macrophages,[2],inhibited
same,cytokine storm (inflammatory and angiogenic arrays) released by macrophages stimulated with gemcitabine-generated PancOH7 debris,[3],prevented
same,"macrophage phagocytosis of aflatoxin B1-generated tumor cell debris, primary peritoneal murine macrophages",[4],stimulates macrophage phagocytosis
same,cytokine storm by ethanol-generated endothelial cell (MS-1) debris,[5],inhibited
same,cytokine storm released by macrophages stimulated with aflatoxin B1-generated Hepa 1-6 debris,[6],prevents the aflatoxin B1-induced cytokine storm; also recorded: able to inhibit; also recorded: prevented
same,cytokine storm released by macrophages stimulated with ethanol-generated Hepa 1-6 debris,[7],able to inhibit; also recorded: prevented
same,"release of pro-inflammatory cytokines, such as CCL2/MCP-1",[8],suppressed
same,serum levels of CXCL13/BCA-1 and SDF-1/CXCL12,"[9]; ID8-bearing mice administered systemic chemotherapy (carboplatin), PTUPB-treated vs control",reduced serum levels
same,"ascites levels of PIGF-2, PTX-3, MMP9, CCL2/MCP-1, fractalkine/CX3CL1, angiopoietin-1","[9]; intraperitoneal ID8 tumors, day 60 post-injection, vs control",decreased levels
same,pro-angiogenic factors serpin E1/PAI-1 and IGFBP1 in serum,"[9]; mice i.p. injected with ID8 (1×10^6 living cells), day 60 post-injection, vs control",inhibited pro-angiogenic factors
same,proliferation of ID8 tumor cells in vitro,ID8 tumor cells,inhibited proliferation
same,debris-stimulated orthotopic ovarian tumor growth,[10],suppressed debris-stimulated orthotopic ovarian tumor growth
same,"survival compared to control, paclitaxel-generated debris orthotopic model","[10]; log-rank test=7.91, p=0.005",significantly prolonged survival
